# According to patent US20100279930A1, “HUMAN PANCREATIC POLYPEPTIDE (HPP) ANALOGUES AND THEIR EFFECTS ON FEEDING BEHAVIOUR” (priority 2007, published 2010):
# No end group written: not given here.
# What was measured:
# Y5 receptor = molecular target: T1, Y5 receptor (Homo sapiens, UniProt Q15761); details: cited from earlier work
# T1 sequence (Q15761 1-445): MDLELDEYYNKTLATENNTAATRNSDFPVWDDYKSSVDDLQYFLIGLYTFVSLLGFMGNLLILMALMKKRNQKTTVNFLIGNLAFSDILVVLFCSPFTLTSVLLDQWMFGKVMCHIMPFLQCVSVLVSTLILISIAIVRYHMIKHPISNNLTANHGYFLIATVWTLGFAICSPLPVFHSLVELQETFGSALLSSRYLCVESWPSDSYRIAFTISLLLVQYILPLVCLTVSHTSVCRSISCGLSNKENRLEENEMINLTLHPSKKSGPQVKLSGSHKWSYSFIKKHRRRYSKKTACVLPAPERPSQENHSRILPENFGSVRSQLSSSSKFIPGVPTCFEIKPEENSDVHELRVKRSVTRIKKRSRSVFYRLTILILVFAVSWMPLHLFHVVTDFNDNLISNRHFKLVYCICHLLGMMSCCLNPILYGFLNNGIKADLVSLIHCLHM
# [1] = injected intracerebroventricularly; cited from earlier work
# Male C57BL/6 mice = assay: In vivo food intake experiments in mice (half-life in the blood judged from appetite suppression); set-up: species or system mouse; details: comparator native human PP; judged from food intake reduction in mice (4-8 h, 0-24 h, 4:1 or 24:1 ratio)
# Protocol: In Vivo Food Intake Experiments
# Male C57BL/6 mice (20-30 g) were used for all mouse experiments. Mice were individually housed in IVC cages. Animals were randomized by weight and fasted overnight for 16 hrs before intraperitoneal injection at 9 am. All peptide solutions were prepared freshly the morning of the study and injected as 100 ul. Food intake was measured at 1, 2, 3, 4, 6, 8 and 24 hours post injection. The peptide was dosed at 30 nmol/kg, 50 nmol/kg, 100 nmol/kg, 120 nmol/kg, 150 nmol/kg, 300 nmol/kg, 600 nmol/kg or 1000 nmol/kg depending on the activity. In each case, a control of saline and a control of unmodified human Pancreatic Polypeptide was carried out. All statistics are calculated using a one-way ANOVA with Dunnett's post-test or one-way ANOVA with Bonferroni post-test.
# A control of saline was used.
# FIG. 2 and in the comparative graph of FIG. 3. […] It is hypothesized that that is as a possible result of stronger activity at the receptor and longer activity.
# The mouse is a good model for degradation rates in humans, irrespective of the fact that the receptors for PP in mice are different from the human receptor.
# healthy volunteers = details: cited from earlier work
# [2] = system: children with Prader-Willi syndrome; details: 100 pmol/kg/h for 90 minutes; cited from earlier work
# human Y4 receptor = human Y4 receptor (Homo sapiens, UniProt P50391); assay: Human Y Receptor-4 Displacement Assay; details: for binding to the Y4 receptor compared with code 6672: comparator compound of SEQ ID NO:72 (code 6672)
# Description: Human Y Receptor-4 Displacement Assay:
# The principle of the displacement assay is a fixed quantity of radiolabeled ligand competes with varying doses of a ‘cold’ (non-labelled) ligand for a limited number of receptor binding sites, enabling quantification of the affinity of the cold ligand to the receptor.
# The cDNA clone was transformed into competent E.coli so a larger preparation of DNA could be produced which was transfected into HEK-293T cells. Using antibiotics, cells expressing the transfected cDNA were selected for, and those cells containing the receptor plasmid were scaled up for a cell membrane preparation. Cells were harvested from culture flasks by scraping, and then homogenized and the membrane separated from other cellular material by differential centrifugation.
# For the displacement assay all reagents are prepared in displacement assay buffer (25 mM HEPES pH 7.4, 2 mM MgCl2, 4 mM CaCl2 1% BSA, 4 mM) containing protease inhibitors (2 mM phenylmethanesulphonylfluoride, 0.5 mM diprotin A and 0.5 mM phosphoramidon). One thousand counts/sec/tube ^I125PP (iodinated by the direct iodogen method) is used as the radiolabeled peptide, and the competing peptide is tested at varying concentrations between 10 uM and 0.02 pM, with each concentration tested in a minimum of duplicate. To each assay tube a volume of the prepared membrane, enough for total counts (where no competing peptide is present) of 10000-15000 counts/240 second is added. Reagents are added in the following order: buffer, label competing peptide and cell membrane, with a total volume is 500 μl.
# The assay is incubated at room temperature for 90 minutes before the receptor-^125PP complex is separated from free label by centrifugation at 15600 g for 3 minutes. The supernatant is removed and discarded and the pellet resuspended and washed with 500 μl fresh assay buffer and re-centrifuged. After centrifugation and removal of supernatant the radioactivity of the pellet was measured for 240 seconds using a γ-counter. Specific binding is calculated as the difference between the amount of ^125I-PP bound in the absence (total) and presence (non-specific) of unlabelled peptide. From the binding data, an IC50 for the competing peptide is calculated. Each peptide is tested on a minimum of two separate occasions.
# mice = details: peripheral administration; cited from earlier work
# Chain of human Y4 receptor (P50391 whole entry): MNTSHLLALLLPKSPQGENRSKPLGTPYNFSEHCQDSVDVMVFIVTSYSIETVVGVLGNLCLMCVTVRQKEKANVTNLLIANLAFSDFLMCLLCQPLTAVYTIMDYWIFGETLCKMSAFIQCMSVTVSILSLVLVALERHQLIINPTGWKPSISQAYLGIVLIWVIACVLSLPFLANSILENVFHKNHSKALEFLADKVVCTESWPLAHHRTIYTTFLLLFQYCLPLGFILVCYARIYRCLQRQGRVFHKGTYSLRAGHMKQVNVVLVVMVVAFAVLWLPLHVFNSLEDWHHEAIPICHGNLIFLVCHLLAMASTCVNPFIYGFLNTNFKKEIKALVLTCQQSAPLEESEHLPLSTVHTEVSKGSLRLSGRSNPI
substance,measurement,setting,value
[K^4]PP,affinity to the Y5-receptor,Y5 receptor,strong affinity
same,effect on food intake,[1],strong stimulatory effect on food intake
[RYYSA^19-23]PP,affinity to the Y5-receptor,Y5 receptor,strong affinity
same,effect on food intake,[1],strong stimulatory effect on food intake
4059668 (GAPLEPHFPGDNATPEEMAKYAAELRRYINKLTRPRY; synthetic hPP analogue peptide) [compound 4059668],half-life in the blood compared with native human PP,Male C57BL/6 mice,longer half-life
Ala Pro Leu Glu Pro Val Tyr Pro Gly Asp Asn Ala Thr Pro Glu Gln Met Ala Gln Tyr Ala Ala Asp Leu Arg Arg Tyr Ile Asn Met Leu Thr Arg Pro Arg Tyr NH2 [native human PP],reduction in energy intake,healthy volunteers; infusion 5 pmol/kg/min (300 pmol/kg/h) for 90 minutes,11%
same,effect on appetite and food intake,healthy volunteers; infusion 10 pmol/kg/min (600 pmol/kg/h) for 90 minutes,reduce appetite and food intake
same,decrease in 24 hour cumulative energy intake,healthy volunteers; infusion 10 pmol/kg/min for 90 minutes,25%
same,effect on appetite,[2],no effect on appetite
7215 (AAPLEPVYPGDNATPEQMAQYAAALRRYINKLTRPRY) [compound 7215],binding at the Y4 receptor compared with code 7214,human Y4 receptor; comparator SEQ ID NO:167 (code 7214),still further better binding at the Y4 receptor
6435 (KPLEPVYPGDNATPEQMAQYAADLRRYINMLTRPRY) [compound 6435],half-life in the blood compared with native human PP,Male C57BL/6 mice,longer half-life
"2-36[K^4, RYYSA^19-23]PP",affinity to the Y5-receptor,Y5 receptor,strong affinity
same,effect on food intake,[1],strong stimulatory effect on food intake
7218 (AAPLEPVYPGDNATPEQMAQYAADLRRYINKLTRPRY) [compound 7218],binding to the Y4 receptor compared with codes 6433 and 4055855,"human Y4 receptor; comparators SEQ ID NO:9 (Ala 0, code 6433) and SEQ ID NO:281 (Lys 30, code 4055855)",binds the Y4 receptor better
6675 (KPLEPVYPGDNATPEELNRYYASLRRYINMLTRPRY) [compound 6675],binding to the Y4 receptor compared with code 6672,human Y4 receptor,stronger binders
"mouse PP: mouse Pancreatic Polypeptide, literature (APLEPMYPGDYATPEQMAQYETQLRRYINTLTRPRY; ends and bridges not checked; UniProt P10601 30-65, looked up)","effect on energy balance, food intake and energy expenditure",mice,induce a negative energy balance by decreasing food intake and stimulating energy expenditure
6674 (KPLEPVYPGDNATPEELNRYYASLRRYINMLTRPRY) [compound 6674],binding to the Y4 receptor compared with code 6672,human Y4 receptor,stronger binders
